Source: US11433136B2, “Polyacetal polymers, conjugates, particles and uses thereof” (THE GENERAL HOSPITAL CORPORATION, priority 2015, dated 2022)

Columns and labels:
AK4.4 tumors = test: Orthotopic AK4.4 pancreatic (PDAC) tumors in lean and obese mice; type: in vivo, mice (FVB)
Experimental: (§1) Diet started at six weeks of age, continued for ten weeks (C57BL/6 and FVB), at which time tumors were implanted, and then continued until the end of experiments. In the spontaneous tumor models, diets were administered until tumor collection. Mice genetically deficient for leptin (ob/ob) on a standard chow for seven weeks gained weight compared to age matched WT mice (n=8-10/group for C57Bl/6, FVB and ob/ob, 4-10/group for KPC, 7-21/group for iKRAS). Left bars represent mice fed a low-fat diet, right bars represent mice fed a high fat diet for all groups except C57/B6 on the far right of the graph, in which the right bar represents the ob/ob mice. […] PAN02 and AK4.4 syngeneic tumors were orthotopically implanted in C57BL/6 and FVB mice respectively at ten weeks of diet (lean diet, left bars; and obese diet or ob/ob mice, right bars); ob/ob mice were implanted with PAN02 tumors at seven weeks of age. Tumors were collected 21 days later. Obese animals presented with higher tumor weights than lean counterparts in all models (n=8-10/group). FIG. 7D is representative images of mesenteric peritoneal dissemination in lean and obese mice implanted with PAN02 tumors. Mesenteries collected at the same time as tumors in FIG. 7C. FIG. 7E is a graph showing the quantification of mesenteric peritoneal metastasis in the PAN02 model. FIG. 7F is a graph showing the quantification of retro-peritoneal metastasis in the AK4.4 model. Data are shown as mean±standard error of the mean (SEM). P values were determined by the Student t-test. *, P<0.05; **, P<0.01; ***, P<0.001.
(§2) Expression of genes associated with AT-1 pathway activation and fibrosis/desmoplasia is increased in PAN02 (FIG. 10A) and AK4.4 (FIG. 10B) tumors from obese mice (right bars) in comparison to lean mice (left bars). […] Data normalized to lean group. 3-4 samples per group pooled in one single PCR array fibrosis gene set plate. […] Of note, similar to αSMA, the changes of AT1, as well as other desmoplasia related markers, were relatively mild in the lean setting. […] Data are shown as mean±SEM with the exception of FIGS. 10A and 10B. P values were determined by the Student t-test unless otherwise stated. *, P<0.05; **, P<0.01, ***p<0.001.
Quantification of total and lectin-positive vessel area in AK4.4 tumors. Obese mice (right bars) presented with decreased perfusion (n=5-12 tumors/group) compared to lean mice (left bars). […] Obese mice presented with increased expression of the hypoxia marker Hif-1α in tumors. […] Doxorubicin quantified via immunofluorescence (n=4 tumors/group). […] AK4.4 syngeneic tumors were orthotopically implanted at ten weeks of diet; treatments were initiated at day 7 post-implantation and tumors resected at day 19. […] Data in FIGS. 17A, 17C and 17D, are shown as mean±SEM. P values were determined by the Student t-test unless otherwise stated. *, P<0.05.
FIGS. 18A, 18B, 18C, 18D, 18E, 18F, and 18G show the additional effects of AT-1 inhibition on obesity-aggravated desmoplasia, perfusion and drug delivery. […] Scale bar: 30 μm (left panels), 500 μm (right panel). […] FIG. 18E is a western blot showing a decrease in αSMA expression in PAN02 tumors implanted in obese AT1 KO mice compared with obese WT mice (bands are part of a larger WB. Lean control group is depicted in FIG. 18F). […] Data in FIGS. 18D, 18F and 18G are shown as mean±SEM. In FIGS. 18C and 18F, far left bars represent lean mice, middle left bars represent lean mice treated with losartan, middle right bars represent obese mice, and […] bars represent obese mice treated with losartan.

PAN02 tumors = test: Orthotopic PAN02 pancreatic (PDAC) tumors in lean and obese mice; type: in vivo, mice (C57BL/6)
Experimental: as §1
FIG. 9A is representative pictures of CD31(+) vessels and lectin in PAN02 tumors. Scale bars: 200 μm. FIG. 9B is a graph showing the quantification of the total (CD31+) and lectin-positive (CD31/lectin+) vessel area in PAN02 tumors. Obese mice (right bars) presented with decreased perfusion (n=3-6 tumors/group) compared to lean mice (left bars). […] Obese mice presented with increased hypoxia in tumors. […] 5-FU quantified via high performance liquid chromatography (HPLC). […] PAN02 tumors were orthotopically implanted at ten weeks of diet, treatments were initiated at day seven post-implantation and tumors resected at day 19. […] Data are shown as mean±SEM. P values were determined by the Student t-test unless otherwise stated. *, P<0.05; **, P<0.01
as §2
Obesity promoted infiltration of myeloid Gr-1(+)F4/80(−) cell population in PAN02 tumors in obese mice. FIG. 11B is a quantification normalized by total viable cells (i) or total CD45 leucocytes (ii) (n=4-6 tumors/group). FIG. 11C is representative FACS scatter plots of CD45(+)CD11b(+)Ly6G(+) tumor associated neutrophils (TANs), CD8(+) cytotoxic lymphocytes and CD4(+)CD25(+) regulatory T cells in PAN02 tumors in lean and obese setting. […] Obese promoted an increase in TANs and a decrease in CD8 cells in PAN02 tumors. A strong tendency for increased Tregs was also observed. […] Scale bars: 1 mm (whole tumors) and 100 μm (caption). […] (n=4-6 tumors/group). For bar graphs in FIGS. 11A, 11B, 11D, and 11E, left bars represent lean mice, and right bars represent obese mice. For the bar graph in FIG. 11J, left bars represent obese mice, and right bars represent obese mice with TAN depletion. Data are shown as mean±SEM. […]

[1] = obese vs lean, treatment from day 7, tumors resected day 19
[2] = losartan with 5-FU, lean and obese

| Compound | response to chemotherapy (tumor growth) (AK4.4 tumors; [1]) | delivery of chemotherapy to tumors, 5-FU quantified via HPLC (PAN02 tumors; obese vs lean mice) | response to chemotherapy (tumor growth) (PAN02 tumors; [1]) | tumor αSMA protein expression (AK4.4 tumors; lean and obese) | mRNA expression of markers of tumor fibrosis/desmoplasia (AK4.4 tumors; lean mice) | response to chemotherapy with AT1 blockade (AK4.4 tumors; [2]) | chemotherapy delivery to tumors (AK4.4 tumors; obese but not lean mice) | tumor perfusion (AK4.4 tumors; obese but not lean mice) | cytokine expression in tumors (multiplex protein) (AK4.4 tumors; obese mice) | mRNA expression of markers of tumor fibrosis/desmoplasia (AK4.4 tumors; obese mice) | tumor fibrillar collagen (SHG) and collagen-1 expression (AK4.4 tumors; obese mice) | expression of AT1 signaling and desmoplasia-related markers (western blotting) (AK4.4 tumors; obese vs lean) | response to chemotherapy with AT1 blockade (PAN02 tumors; [2]) | tumor αSMA protein expression (PAN02 tumors; obese and lean) | chemotherapy delivery to tumors (PAN02 tumors; obese but not lean mice) | tumor perfusion (PAN02 tumors; obese but not lean mice) | cytokine expression in tumors (multiplex protein) (PAN02 tumors; obese mice) |
| --- | --- | --- | --- | --- | --- | --- | --- | --- | --- | --- | --- | --- | --- | --- | --- | --- | --- |
| O=c1[nH]cc(F)c(=O)[nH]1 [Example 5-FU, 5-fluorouracil] | less effective in preventing tumor growth in obese animals | decreased delivery | less effective in preventing PAN02 tumor growth in obese animals than in lean | – | – | – | – | – | – | – | – | – | – | – | – | – | – |
| CCCCc1nc(Cl)c(CO)n1Cc1ccc(-c2ccccc2-c2nn[nH]n2)cc1 [losartan] | – | – | – | reduced tumor αSMA protein expression more dramatically in the obese setting | did not alter these markers in lean mice | improved response to chemotherapy in both lean and obese settings but with higher magnitude in obese setting | increase chemotherapy delivery | tended to improve perfusion | reduced the expression of multiple cytokines including IL-1 | reverted by losartan | reduced tumor fibrillar collagen (top panels) as well as collagen-1 expression | normalized the obesity-augmented expression | improved response to chemotherapy in obese, but not in lean animals | tendency for reduced tumor αSMA protein expression in obese but not lean setting | increase chemotherapy delivery | tended to improve perfusion | reduced the expression of multiple cytokines including IL-1 |
